EC50 data for one molecule are collected here from patent US20210369677A1, “SMALL MOLECULE ACTIVATORS OF POLYCYSTIN-2 (PKD2) AND USES THEREOF” (Northwestern University, priority 2020, published 2021).

Molecules are shown by their SMILES.

Experiment [1] relates to polycystin-2 channels. Briefly: Inside-out cilia patch of pIMCD cells, calcium opening of polycystin-2 channels. The note with it: Pkd2+/del-Z mice; read-out: EC50, potency of calcium opening polycystin-2 channels. The experiment is classed as cell-based, mouse. How it is done: (§1) Cell culture of primary inner medullary collecting duct cells and immortalized cell lines. Primary inner medullary collecting ducts cells (pIMCD) were isolated from WT or Pkd2^del-Z/del-Z mice co-expressing the ARL13B-EGFP cilia reporter using the previously described method (Liu et al., 2018). Briefly, inner medullae were removed from the kidney and disassociated using a Dulbecco's phosphate buffered solution (DPBS) containing 2 mg/ml collagenase A and 1 mg/ml hyaluronidase. After mechanical disassociation on ice, medullary cells were cultured in Dulbecco's modified essential medium (DMEM) supplemented with 10% fetal bovine serum (FBS) and 100 units/ml penicillin/100 μg/ml streptomycin. Cilia were patched from cells within 6 days after isolation and within one passage. HEK PKD2^Null cell lines were generated using the CRISPR/Cas9 gene editing kit available from Addgene and authenticated using PCR analysis, as previously described (Liu et al., 2018). […]
(§2) Electrophysiology. The electrophysiologist was blinded by a third party in the laboratory, where test groups were assigned a letter to conceal the genetic identity of the cells being evaluated. […] Ciliary ion currents were recorded using borosilicate glass electrodes polished to resistances of 14-23 MΩ using the cilium patch method previously described (Vien et al., 2020). Single channel currents measured in the inside-out configuration were recorded in symmetrical sodium concentrations. […] Calcium was buffered with 5 EGTA (ethylene glycol-bis(o-aminoethyl ether)-N,N,N′,N′-tetraacetic acid), 5 Na4-BAPTA (Glycine, N, N′-[1,2-ethanediylbis(oxy-2,1-phenylene)]bis[N-(carboxymethyl)]-,tetrasodium) and 0.5 EDTA […]; free calcium was calculated using Maxchilator and titration of 1 M CaCl2) solution (Bers et al., 2010); pH was adjusted to 7.3 using NaOH. […] Whole cell currents used to measure CDD were also recorded in symmetrical sodium concentration, placing the internal recording solution in the pipette electrode and the external recording solution in the bath. […]

The target of experiment [2] is T1, polycystin-2 channels (Mus musculus, UniProt O35245, DEL771-772).
T1 construct: the mouse channel orthologue under endogenous expression in the kidney collecting duct; endogenous in cells; host or cells: primary inner medullary collecting duct (pIMCD) cells of ARL13B-EGFP mice
T1 sequence (O35245 with tags, fused parts or gaps DEL771-772): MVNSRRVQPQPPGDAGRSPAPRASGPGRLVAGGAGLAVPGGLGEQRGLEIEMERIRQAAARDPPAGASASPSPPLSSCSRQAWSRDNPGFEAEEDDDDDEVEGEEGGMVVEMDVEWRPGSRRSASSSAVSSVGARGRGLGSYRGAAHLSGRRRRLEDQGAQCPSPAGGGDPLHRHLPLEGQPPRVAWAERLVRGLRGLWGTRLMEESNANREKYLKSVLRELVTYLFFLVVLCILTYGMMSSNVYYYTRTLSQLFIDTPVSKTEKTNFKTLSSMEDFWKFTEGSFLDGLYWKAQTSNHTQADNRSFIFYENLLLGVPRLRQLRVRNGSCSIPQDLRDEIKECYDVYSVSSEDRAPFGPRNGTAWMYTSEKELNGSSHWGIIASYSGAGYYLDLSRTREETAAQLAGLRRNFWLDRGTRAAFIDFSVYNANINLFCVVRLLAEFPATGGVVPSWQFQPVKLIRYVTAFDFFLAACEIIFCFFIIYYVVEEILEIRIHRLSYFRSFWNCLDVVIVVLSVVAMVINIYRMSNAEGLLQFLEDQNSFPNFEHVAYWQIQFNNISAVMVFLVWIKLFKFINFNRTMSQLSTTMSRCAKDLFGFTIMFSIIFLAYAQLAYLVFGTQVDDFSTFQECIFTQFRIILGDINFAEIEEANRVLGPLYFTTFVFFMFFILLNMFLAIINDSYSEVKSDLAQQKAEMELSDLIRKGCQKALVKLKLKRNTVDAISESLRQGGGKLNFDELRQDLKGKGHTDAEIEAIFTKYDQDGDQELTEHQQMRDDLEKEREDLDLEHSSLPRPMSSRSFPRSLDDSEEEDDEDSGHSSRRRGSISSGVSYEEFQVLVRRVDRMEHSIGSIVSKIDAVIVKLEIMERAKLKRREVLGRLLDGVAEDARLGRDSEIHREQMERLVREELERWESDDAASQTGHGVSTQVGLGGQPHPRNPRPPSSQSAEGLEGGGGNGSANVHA
Described as above. The experiment is classed as cell-based. The note with it: Pkd2del-Z/delZ mice; read-out: EC50, potency of calcium opening polycystin-2 channels. How it is done: as §1, §2

The term EC50 denotes the concentration needed to bring the measured effect to its halfway point.

As to `[Ca+2]` [Ca^2+, calcium], the values for the EC50 in experiment [1] and in experiment [2] were 1400 ± 400 nM and 1400 ± 300 nM, respectively.
